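Each compound was tested at five concentrations against cells in 96-well plates for 48 hours. At the GI50, growth is halved.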 Activity calls are given as the source filed them. Cut-off read from the data, not from the text of the source: active = GI50 up to about 1.1 µM and inactive = higher.
How the values were obtained:
Assay in all cases: NCI-60 cell line screen, 48 h
LOX IMVI = tested on: LOX IMVI
MCF7 = tested on: MCF7
SK-MEL-28 = tested on: SK-MEL-28
HT-29 = tested on: HT-29
IGROV-1 = tested on: IGROV-1
A549 = tested on: A549
PC-3 = tested on: PC-3
DU-145 = tested on: DU-145
RXF 393 = tested on: RXF 393
BT-549 = tested on: BT-549
UACC-62 = tested on: UACC-62
OVCAR-8 = tested on: OVCAR-8
SK-MEL-5 = tested on: SK-MEL-5
HCT-116 = tested on: HCT-116
MOLT-4 = tested on: MOLT-4
NCI-H23 = tested on: NCI-H23
NCI/ADR-RES = tested on: NCI/ADR-RES
A498 = tested on: A498
HOP-62 = tested on: HOP-62
SF-268 = tested on: SF-268
SF-295 = tested on: SF-295
COLO 205 = tested on: COLO 205
CCRF-CEM = tested on: CCRF-CEM
OVCAR-5 = tested on: OVCAR-5
U-251 = tested on: U-251
SW-620 = tested on: SW-620
CAKI-1 = tested on: CAKI-1
SK-MEL-2 = tested on: SK-MEL-2
T47D = tested on: T47D
M14 = tested on: M14
SN12C = tested on: SN12C
OVCAR-4 = tested on: OVCAR-4
786-0 = tested on: 786-0
Hs-578T = tested on: Hs-578T
NCI-H522 = tested on: NCI-H522
HCT-15 = tested on: HCT-15
HL-60 = tested on: HL-60
ACHN = tested on: ACHN
EKVX = tested on: EKVX
RPMI-8226 = tested on: RPMI-8226
MDA-MB-435 = tested on: MDA-MB-435
SNB-19 = tested on: SNB-19
UACC-257 = tested on: UACC-257
SF-539 = tested on: SF-539
TK-10 = tested on: TK-10
OVCAR-3 = tested on: OVCAR-3
MDA-MB-231 = tested on: MDA-MB-231
SK-OV-3 = tested on: SK-OV-3
KM12 = tested on: KM12
HOP-92 = tested on: HOP-92
NCI-H460 = tested on: NCI-H460
Malme-3M = tested on: Malme-3M
MDA-N = tested on: MDA-N
UO-31 = tested on: UO-31
HCC 2998 = tested on: HCC 2998
NCI-H226 = tested on: NCI-H226
SNB-75 = tested on: SNB-75

O=C1NCN(c2ccccc2)C12CCN(CCc1ccc3[nH]c(=S)[nH]c3c1)CC2
GI50 (LOX IMVI): 18.5 µM (inactive) | GI50 (MCF7): 28.5 µM (inactive) | GI50 (SK-MEL-28): 4.12 µM (inactive) | GI50 (HT-29): 29.3 µM (inactive) | GI50 (IGROV-1): 37.6 µM (inactive) | GI50 (A549): 66.5 µM (inactive) | GI50 (PC-3): 24.3 µM (inactive) | GI50 (DU-145): 39.7 µM (inactive) | GI50 (RXF 393): 13 µM (inactive) | GI50 (BT-549): 30.5 µM (inactive) | GI50 (UACC-62): 64.9 µM (inactive) | GI50 (OVCAR-8): 51.9 µM (inactive) | GI50 (SK-MEL-5): 17.5 µM (inactive) | GI50 (HCT-116): 43 µM (inactive) | GI50 (MOLT-4): 41.4 µM (inactive) | GI50 (NCI-H23): 65.9 µM (inactive) | GI50 (NCI/ADR-RES): > 100 µM (inactive) | GI50 (A498): 53.6 µM (inactive) | GI50 (HOP-62): > 100 µM (inactive) | GI50 (SF-268): 56.9 µM (inactive) | GI50 (SF-295): 51.3 µM (inactive) | GI50 (COLO 205): 16.3 µM (inactive) | GI50 (CCRF-CEM): 3.15 µM (inactive) | GI50 (OVCAR-5): > 100 µM (inactive) | GI50 (U-251): 29.4 µM (inactive) | GI50 (SW-620): 11.9 µM (inactive) | GI50 (CAKI-1): > 100 µM (inactive) | GI50 (SK-MEL-2): 20.7 µM (inactive) | GI50 (T47D): 16.4 µM (inactive) | GI50 (M14): 19.6 µM (inactive) | GI50 (SN12C): 36.1 µM (inactive) | GI50 (OVCAR-4): > 100 µM (inactive) | GI50 (786-0): 33.5 µM (inactive) | GI50 (Hs-578T): > 100 µM (inactive) | GI50 (NCI-H522): 43.4 µM (inactive) | GI50 (HCT-15): > 100 µM | GI50 (HL-60): 29.1 µM (inactive) | GI50 (ACHN): > 100 µM (inactive) | GI50 (EKVX): 88.5 µM (inactive) | GI50 (RPMI-8226): 22.3 µM (inactive) | GI50 (MDA-MB-435): 17.3 µM (inactive) | GI50 (SNB-19): 43.5 µM (inactive) | GI50 (UACC-257): 0.075 µM (active) | GI50 (SF-539): 22.1 µM (inactive) | GI50 (TK-10): 24.7 µM (inactive) | GI50 (OVCAR-3): 48 µM (inactive) | GI50 (MDA-MB-231): 19.5 µM (inactive) | GI50 (SK-OV-3): > 100 µM (inactive) | GI50 (KM12): 27.9 µM (inactive) | GI50 (HOP-92): 13.9 µM (inactive) | GI50 (NCI-H460): 31.8 µM (inactive) | GI50 (Malme-3M): 15.6 µM (inactive)

CC(=O)/N=C1\NC(=O)/C(=C/c2ccccc2Cl)N1C
GI50 (LOX IMVI): > 100 µM (inactive) | GI50 (MDA-N): > 100 µM (inactive) | GI50 (MCF7): > 100 µM (inactive) | GI50 (SK-MEL-28): > 100 µM (inactive) | GI50 (HT-29): > 100 µM (inactive) | GI50 (IGROV-1): > 100 µM (inactive) | GI50 (A549): > 100 µM (inactive) | GI50 (PC-3): > 100 µM (inactive) | GI50 (DU-145): > 100 µM (inactive) | GI50 (RXF 393): > 100 µM (inactive) | GI50 (BT-549): > 100 µM (inactive) | GI50 (UACC-62): > 100 µM (inactive) | GI50 (OVCAR-8): > 100 µM (inactive) | GI50 (SK-MEL-5): > 100 µM (inactive) | GI50 (HCT-116): > 100 µM (inactive) | GI50 (MOLT-4): > 100 µM (inactive) | GI50 (NCI-H23): > 100 µM (inactive) | GI50 (UO-31): > 100 µM (inactive) | GI50 (NCI/ADR-RES): 43.2 µM (inactive) | GI50 (HOP-62): > 100 µM (inactive) | GI50 (SF-268): > 100 µM (inactive) | GI50 (SF-295): > 100 µM (inactive) | GI50 (COLO 205): > 100 µM (inactive) | GI50 (HCC 2998): > 100 µM (inactive) | GI50 (CCRF-CEM): > 100 µM (inactive) | GI50 (OVCAR-5): > 100 µM (inactive) | GI50 (U-251): > 100 µM (inactive) | GI50 (SW-620): > 100 µM (inactive) | GI50 (CAKI-1): > 100 µM (inactive) | GI50 (SK-MEL-2): > 100 µM (inactive) | GI50 (M14): > 100 µM (inactive) | GI50 (SN12C): > 100 µM (inactive) | GI50 (OVCAR-4): > 100 µM (inactive) | GI50 (786-0): > 100 µM (inactive) | GI50 (Hs-578T): > 100 µM (inactive) | GI50 (NCI-H522): > 100 µM (inactive) | GI50 (HCT-15): 65.9 µM | GI50 (HL-60): > 100 µM (inactive) | GI50 (ACHN): > 100 µM (inactive) | GI50 (EKVX): 26.4 µM (inactive) | GI50 (NCI-H226): > 100 µM (inactive) | GI50 (MDA-MB-435): > 100 µM (inactive) | GI50 (SNB-19): > 100 µM (inactive) | GI50 (UACC-257): > 100 µM (inactive) | GI50 (SF-539): > 100 µM (inactive) | GI50 (TK-10): > 100 µM (inactive) | GI50 (OVCAR-3): > 100 µM (inactive) | GI50 (MDA-MB-231): > 100 µM (inactive) | GI50 (SNB-75): > 100 µM (inactive) | GI50 (SK-OV-3): > 100 µM (inactive) | GI50 (KM12): > 100 µM (inactive) | GI50 (HOP-92): > 100 µM (inactive) | GI50 (NCI-H460): > 100 µM (inactive)

O=c1oc(-c2ccccc2)c(-c2ccccc2)n1-c1ccc(Br)cc1
GI50 (LOX IMVI): 32.4 µM (inactive) | GI50 (MCF7): > 100 µM (inactive) | GI50 (SK-MEL-28): > 100 µM (inactive) | GI50 (HT-29): > 100 µM (inactive) | GI50 (IGROV-1): 29.6 µM (inactive) | GI50 (A549): 54.5 µM (inactive) | GI50 (PC-3): > 100 µM (inactive) | GI50 (DU-145): 21 µM (inactive) | GI50 (RXF 393): 36.3 µM (inactive) | GI50 (BT-549): 25.5 µM (inactive) | GI50 (UACC-62): 73.8 µM (inactive) | GI50 (OVCAR-8): 29.2 µM (inactive) | GI50 (SK-MEL-5): 76.6 µM (inactive) | GI50 (HCT-116): 49.7 µM (inactive) | GI50 (MOLT-4): > 100 µM (inactive) | GI50 (NCI-H23): 19.8 µM (inactive) | GI50 (UO-31): > 100 µM (inactive) | GI50 (A498): 26.2 µM (inactive) | GI50 (HOP-62): 33.2 µM (inactive) | GI50 (SF-268): 55 µM (inactive) | GI50 (SF-295): 28.1 µM (inactive) | GI50 (COLO 205): > 100 µM (inactive) | GI50 (CCRF-CEM): 93.8 µM (inactive) | GI50 (OVCAR-5): > 100 µM (inactive) | GI50 (U-251): 24.2 µM (inactive) | GI50 (SW-620): > 100 µM (inactive) | GI50 (CAKI-1): > 100 µM (inactive) | GI50 (SK-MEL-2): > 100 µM (inactive) | GI50 (T47D): 29.4 µM (inactive) | GI50 (M14): > 100 µM (inactive) | GI50 (SN12C): 71.3 µM (inactive) | GI50 (OVCAR-4): 27 µM (inactive) | GI50 (786-0): 32.4 µM (inactive) | GI50 (Hs-578T): 32.3 µM (inactive) | GI50 (NCI-H522): 17.2 µM (inactive) | GI50 (HCT-15): > 100 µM | GI50 (HL-60): 39.5 µM (inactive) | GI50 (ACHN): > 100 µM (inactive) | GI50 (EKVX): 54.1 µM (inactive) | GI50 (NCI-H226): > 100 µM (inactive) | GI50 (MDA-MB-435): > 100 µM (inactive) | GI50 (SNB-19): 31.8 µM (inactive) | GI50 (UACC-257): 86.9 µM (inactive) | GI50 (SF-539): 20.6 µM (inactive) | GI50 (TK-10): 31.8 µM (inactive) | GI50 (OVCAR-3): 47.5 µM (inactive) | GI50 (MDA-MB-231): 27.7 µM (inactive) | GI50 (SNB-75): 12 µM (inactive) | GI50 (SK-OV-3): 31.1 µM (inactive) | GI50 (KM12): 37.4 µM (inactive) | GI50 (HOP-92): 35.4 µM (inactive) | GI50 (NCI-H460): 62.1 µM (inactive)

— ChEMBL document CHEMBL1201862, “PubChem BioAssay data set” (2004)
